Data as given in US4939133A, “N-substituted-2-hydroxy-α-oxo-benzeneacetamides and pharmaceutical compositions having activity as modulators of the arachidonic acid cascade” (Warner-Lambert Company, priority 1985, dated 1990).

Target: T1, 5-lipoxygenase (isolated human leukocytes) (Homo sapiens, UniProt P09917)
T1 construct: 5-Lipoxygenase Assay Using Isolated Human Leukocytes (5LOA2); endogenous in cells; host or cells: isolated human blood leukocytes, platelets removed
T1 sequence (P09917 1-674): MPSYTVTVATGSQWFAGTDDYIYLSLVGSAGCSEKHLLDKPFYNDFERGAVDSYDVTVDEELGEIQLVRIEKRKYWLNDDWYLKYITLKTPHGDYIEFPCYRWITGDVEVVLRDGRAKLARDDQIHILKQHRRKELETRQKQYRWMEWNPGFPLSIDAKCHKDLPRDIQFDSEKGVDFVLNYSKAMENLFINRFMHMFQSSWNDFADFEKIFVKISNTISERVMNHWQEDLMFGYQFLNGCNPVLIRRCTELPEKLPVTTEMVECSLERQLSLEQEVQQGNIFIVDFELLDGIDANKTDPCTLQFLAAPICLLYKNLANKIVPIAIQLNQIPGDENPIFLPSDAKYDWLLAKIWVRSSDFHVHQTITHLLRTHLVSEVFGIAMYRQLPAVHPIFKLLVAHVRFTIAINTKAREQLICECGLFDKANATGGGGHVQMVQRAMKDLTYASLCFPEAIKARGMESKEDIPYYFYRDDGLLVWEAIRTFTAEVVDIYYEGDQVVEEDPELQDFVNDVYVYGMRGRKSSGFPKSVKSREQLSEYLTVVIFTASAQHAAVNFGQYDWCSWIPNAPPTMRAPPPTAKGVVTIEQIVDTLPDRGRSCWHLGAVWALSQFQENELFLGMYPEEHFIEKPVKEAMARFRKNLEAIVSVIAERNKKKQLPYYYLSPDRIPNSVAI
Test: 5-Lipoxygenase Assay Using Isolated Human Leukocytes (5LOA2)
Assay type: cell-based
Conditions: 5LOA2; 50% inhibition of 5-HETE formation; E -number means X 10^-no.; read-out: Concentration giving 50.00 % Inhibition (5LOA2)
Procedure: 5-Lipoxygenase Assay Using Isolated Human Leukocytes (5LOA2)
The formation of 5-HETE in human leukocytes is considered a measure of 5-lipoxygenase activity. The protocol is described in the following.
Fresh heparinized or EDTA treated human blood is mixed with 6% dextran-3% dextrose in isotonic saline in the ratio 0.25 ml dextran solution per 1.0 ml blood. After mixing the blood is allowed to sit at room temperature for about 90 minutes while the RBC's settle. During this period, the plasma is removed with a plastic pipette to nalgens tubes.
The plasma is centrifuged at 800 rpm ([…]) on the Beckman Td-b refrigerated centrifuge to remove the platelets (which remain in the supernatant). The pellet, consisting of leukocytes and erythrocytes, is treated with 10 ml 0.87% ammonium chloride at room temperature for four minutes, lysing the red cells. At the end of four minutes the cells are diluted with a 2×volume of phosphate buffered saline, pH 7.4, and centrifuged for ten minutes. The cells are washed three times with the phosphate buffered saline. Any of the pelleted cell matter which is not easily resuspended is discarded during the washings --the material contains platelets (12-lipoxygenase activity).
After washing, the cells are resuspended in phosphate buffered saline containing 1.0 mM calcium and 0.5 mM magnesium. After counting the cells are diluted to 1.5-2.0×10^7 leukocytes per milliliter.
To each polypropylene reaction tube is added 0.48 ml leukocytes in Ca-Mg phosphate buffered saline, pH 7.4; 1-5 μl test compound dissolved in DMSO and buffer; or DMSO for control tubes.
The tubes preincubate at 37° C. for five minutes. […]
A portion of the ethanol solution is injected into the HPLC system for 5-HETE quantitation.
The HPLC system consists of Hewlett-Packard 1040A UV spectrophotometry system with an HP85 computer. […] Peaks are measured with a Hewlett Packard 3360A integrator. […] The flow is monitored at 235 nm for 5-HETE quatitation. […]

Work on `COc1ccc(CCc2ccc(NC(=O)c3ccc(C)cc3O)cc2)cc1OC` [Example 46, N-[4-[2-(3,4-Dimethoxyphenyl)ethyl]phenyl]-2-hydroxy-4-methylbenzamide] yielded an IC50 of 1690 nM.
